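All cell lines were grown in 96-well plates and treated with compound for 48 hours. Here, GI50 denotes the concentration required for 50% inhibition of growth. The concentration for full growth arrest is given as TGI.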
Key:
Assay in all cases: inhibition of tumour cell growth, NCI panel, 48 h
[1] = tested on: 786-0 renal
[2] = tested on: A498 renal
[3] = tested on: A549 NSCLC
[4] = tested on: ACHN renal
[5] = tested on: BT-549 breast
[6] = tested on: CAKI-1 renal
[7] = tested on: CCRF-CEM leukemia
[8] = tested on: COLO 205 colon
[9] = tested on: DU-145 prostate
[10] = tested on: EKVX NSCLC
[11] = tested on: HCC-2998 colon
[12] = tested on: HCT-116 colon
[13] = tested on: HCT-15 colon
[14] = tested on: HL-60(TB) leukemia
[15] = tested on: HOP-62 NSCLC
[16] = tested on: HOP-92 NSCLC
[17] = tested on: HS 578T breast
[18] = tested on: HT29 colon
[19] = tested on: IGROV1 ovarian
[20] = tested on: K-562 leukemia
[21] = tested on: KM12 colon
[22] = tested on: LOX IMVI melanoma
[23] = tested on: M14 melanoma
[24] = tested on: MALME-3M melanoma
[25] = tested on: MCF7 breast
[26] = tested on: MDA-MB-231 breast
[27] = tested on: MDA-MB-435
[28] = tested on: MDA-MB-468 breast
[29] = tested on: MOLT-4 leukemia
[30] = tested on: NCI-H226 lung
[31] = tested on: NCI-H23 lung
[32] = tested on: NCI-H460 lung
[33] = tested on: NCI-H522 lung
[34] = tested on: NCI/ADR-RES ovarian
[35] = tested on: OVCAR-3 ovarian
[36] = tested on: OVCAR-4 ovarian
[37] = tested on: OVCAR-5 ovarian
[38] = tested on: OVCAR-8 ovarian
[39] = tested on: PC-3 prostate
[40] = tested on: RPMI-8226 leukemia
[41] = tested on: RXF 393 renal
[42] = tested on: SF-268 CNS
[43] = tested on: SF-295 CNS
[44] = tested on: SF-539 CNS
[45] = tested on: SK-MEL-2 melanoma
[46] = tested on: SK-MEL-28 melanoma
[47] = tested on: SK-MEL-5 melanoma
[48] = tested on: SK-OV-3 ovarian
[49] = tested on: SN12C renal
[50] = tested on: SNB-19 CNS
[51] = tested on: SNB-75 CNS
[52] = tested on: SR leukemia
[53] = tested on: SW-620 colon
[54] = tested on: T-47D breast
[55] = tested on: TK-10 renal
[56] = tested on: U251 CNS
[57] = tested on: UACC-257 melanoma
[58] = tested on: UACC-62 melanoma
[59] = tested on: UO-31 renal

CC(=O)Nc1nc(-c2ccc(N3CCN(C)CC3)c(NS(=O)(=O)c3cccc4c(N(C)C)cccc34)c2)cs1
GI50 [1]: 11.7 µM
TGI [1]: 24.6 µM
GI50 [2]: 13.1 µM
TGI [2]: 24.5 µM
GI50 [3]: 14.2 µM
TGI [3]: 30.2 µM
GI50 [4]: 13.7 µM
TGI [4]: 25.3 µM
GI50 [5]: 11.3 µM
TGI [5]: 23.5 µM
GI50 [6]: 14 µM
TGI [6]: 26.2 µM
GI50 [7]: 13.2 µM
TGI [7]: 38.2 µM
GI50 [8]: 12.5 µM
TGI [8]: 27.9 µM
GI50 [9]: 14 µM
TGI [9]: 26 µM
GI50 [10]: 13.1 µM
TGI [10]: 25.7 µM
GI50 [11]: 12.4 µM
TGI [11]: 24 µM
GI50 [12]: 12.3 µM
TGI [12]: 28.8 µM
GI50 [13]: 12.6 µM
TGI [13]: 25.4 µM
GI50 [14]: 9.4 µM
TGI [14]: 24.9 µM
GI50 [15]: 12.6 µM
TGI [15]: 25.8 µM
GI50 [16]: 9.15 µM
TGI [16]: 20.4 µM
GI50 [17]: 11.6 µM
TGI [17]: 43.6 µM
GI50 [18]: 8.91 µM
TGI [18]: 21.3 µM
GI50 [19]: 14.2 µM
TGI [19]: 26.3 µM
GI50 [20]: 15.9 µM
TGI [20]: 85.5 µM
GI50 [21]: 14.4 µM
TGI [21]: 28.4 µM
GI50 [22]: 10.7 µM
TGI [22]: 21.9 µM
GI50 [23]: 12.8 µM
TGI [23]: 25.8 µM
GI50 [24]: 11.4 µM
TGI [24]: 22.4 µM
GI50 [25]: 10.8 µM
TGI [25]: 24 µM
GI50 [26]: 14.4 µM
TGI [26]: 26.6 µM
GI50 [27]: 13 µM
TGI [27]: 25.4 µM
GI50 [28]: 10.7 µM
TGI [28]: 22.3 µM
GI50 [29]: 13.3 µM
TGI [29]: 37.9 µM
GI50 [30]: 13.3 µM
TGI [30]: 28.3 µM
GI50 [31]: 11.3 µM
TGI [31]: 23.6 µM
GI50 [32]: 14.4 µM
TGI [32]: 29 µM
GI50 [33]: 12.6 µM
TGI [33]: 25.6 µM
GI50 [34]: 16.6 µM
TGI [34]: 37.1 µM
GI50 [35]: 11.5 µM
TGI [35]: 23.3 µM
GI50 [36]: 13.6 µM
TGI [36]: 28.2 µM
GI50 [37]: 12.6 µM
TGI [37]: 23.9 µM
GI50 [38]: 16.9 µM
TGI [38]: 45.6 µM
GI50 [39]: 11.2 µM
TGI [39]: 28.1 µM
GI50 [40]: 8.05 µM
TGI [40]: 53.6 µM
GI50 [41]: 9.16 µM
TGI [41]: 20.3 µM
GI50 [42]: 12.4 µM
TGI [42]: 25.3 µM
GI50 [43]: 7.22 µM
TGI [43]: 18.3 µM
GI50 [44]: 9.78 µM
TGI [44]: 20.1 µM
GI50 [45]: 13.6 µM
TGI [45]: 26.2 µM
GI50 [46]: 10.5 µM
TGI [46]: 21.1 µM
GI50 [47]: 11.9 µM
TGI [47]: 23.2 µM
GI50 [48]: 13.2 µM
TGI [48]: 26.8 µM
GI50 [49]: 12.1 µM
TGI [49]: 23.7 µM
GI50 [50]: 12.2 µM
TGI [50]: 23.5 µM
GI50 [51]: 9.24 µM
TGI [51]: 19.7 µM
GI50 [52]: 3.27 µM
TGI [52]: 18.2 µM
GI50 [53]: 13.1 µM
TGI [53]: 25.4 µM
GI50 [54]: 12 µM
TGI [54]: 28.9 µM
GI50 [55]: 16.4 µM
TGI [55]: 29.1 µM
GI50 [56]: 11.1 µM
TGI [56]: 23.3 µM
GI50 [57]: 13.1 µM
TGI [57]: 25.8 µM
GI50 [58]: 12.8 µM
TGI [58]: 24.1 µM
GI50 [59]: 10.9 µM
TGI [59]: 21.7 µM
